Laboratory results from a melting point compilation (Tetko et al.; mined from patent text by program, amines drawn as free bases though some values may be those of a salt).

Point of comparison: `COc1cc2c(cc1O)CC1CN(C)Cc3c(O)c(OC)cc-2c31` (stereo not drawn), melting point 300 °C. Against it:
- CCOC(=O)c1cn(C)nc1OCc1ccc(OCc2nc(-c3ccco3)oc2C)c(OC)c1 — lower, 117 to 118 °C
- Cc1c(Cc2ccc(C(C)C)cc2)c2c(c(C)c1NC(=O)CC(C)(C)C)C(N1CCCC1)C(C)(C)O2 (stereo not drawn) — lower, 179 to 180 °C
- O=c1[nH]c2cc(Cl)ccc2n1C1CCN(CCCNc2ccccc2[N+](=O)[O-])CC1 — lower, 220 °C
- CCOc1ccc(C(CC(N)=O)N2C(=O)c3ccccc3C2=O)cc1 (stereo not drawn) — lower, 191 °C
- O=Cc1cc(-n2nnnc2C(F)(F)F)ccc1OCC1CC1 — lower, 80 to 82 °C
- O=S1(=O)c2cccc3cccc(c23)N1CCCN1CCN(c2ccccc2)CC1 — lower, 126 °C
- CC(=O)N(C)c1ccccc1CS(=O)c1nccn1-c1ccccn1 (stereo not drawn) — lower, 188 to 189 °C
- COc1cc2ncnc(N3CCN(C(=O)NCc4cccs4)CC3)c2cc1OC — lower, 168 to 170 °C
- N#Cc1ccc(C=CC(=O)C2CC2)cc1 — lower, 104 °C
- CCOC(=O)C1=C(COCCNCC(=O)OC)NC(C)=C(C(=O)OC)C1c1cccc(Cl)c1Cl (stereo not drawn) — lower, 96 to 98 °C
- Cn1nc(-c2cnc(N)nc2-c2ccc(Cl)c(Cl)c2)ccc1=O — lower, 238 °C
- COc1cc2ncc(C#N)c(Nc3ccc(F)c(Cl)c3)c2cc1NC(=O)C=CCN1CCSC1 — lower, 135 to 138 °C
- CC1=C(C#N)S(=O)(=O)c2cc(Cl)ccc2N1 — lower, 297 to 299 °C
- COC(=O)c1ccc(CC(C)NCC(O)c2ccc(Cl)cc2)cc1 (stereo not drawn) — lower, 134 to 135 °C
- Cc1nc(Cn2c(NC3CCN(CCc4c(C)nc5sccn5c4=O)CC3)nc3ccccc32)cs1 — lower, 130 °C
- CCC(O)c1cc(C(=O)OC)c(NC(C)=O)cc1C(F)(F)F (stereo not drawn) — lower, 120 to 122 °C
- CC(C(N)=O)c1ccc2c(c1)C(=O)Cc1cc(C(F)(F)F)ccc1S2 (stereo not drawn) — lower, 159 to 161 °C
- COc1nc2cc(C)c(Cl)c(NS(C)(=O)=O)c2nc1OC — lower, 198 °C
- CN(C)CCNc1nc2cc(Cl)c(Cl)cc2nc1-c1ccccn1 — lower, 95 to 97 °C
- CCN(CC)CCOc1cccc2c1c1cc(F)ccc1n2Cc1ccccc1 — lower, 68 to 69 °C
- Cc1ccc(-c2cc(Cl)c3ccccc3n2)cc1 — lower, 75 to 77 °C
- COC=C(C(=O)OC)c1csc2ccc(CBr)cc12 — lower, 124 to 125 °C
- COc1cc(C=O)c(Cl)c(Cl)c1OC — lower, 120 to 123 °C
- Fc1ccc2c(c1)C(=C1CCNCC1)c1ncccc1CC2 — lower, 78 to 81 °C
- COc1cccc(-c2nc3sccn3c2-c2ccnc(N[C@@H]3CCCN(C[C@@H](O)CO)C3)n2)c1 — lower, 106 to 108 °C
- CC(C)(C)OC(=O)NCC(CNC(=O)OC(C)(C)C)OS(C)(=O)=O — lower, 127 °C
- CC(=O)Oc1ccc(C(=O)CN(CCNC(=O)Cc2ccccc2)Cc2ccccc2)cc1OC(C)=O — lower, 140 to 145 °C
- CC(=O)OCCNC(=O)Nc1ccc2c(c1)C(c1ccccc1F)=NCC(=O)N2C — lower, 196 to 198 °C
- COC(=O)CCCc1cc2nc(Cl)ccc2n1S(=O)(=O)c1ccc(C(F)(F)F)cc1 — lower, 99 °C
- CCCCCCCCCCC1(CCCCCCCCCC)c2cc(-c3cccs3)ccc2-c2ccc(-c3cccs3)cc21 — lower, 59.9 to 60.8 °C
- CSc1ccc(-c2nc(SC)c(C(=O)O)c(=O)n2-c2ccc(C)cc2)cc1 — lower, 173 to 175 °C
- CCCCCC(C=Cc1ccc(C(=O)O)cc1)c1ccc2c(c1)C(C)(C)CCS2 (racemic) — lower, 146 °C
- CCn1c(N)c(-c2ncc[nH]2)c(=O)c2ccc(-c3ccc(CCCC(=O)NCc4ccncc4)cc3)nc21 — lower, 240 °C
- Cc1ccc(S(=O)(=O)OCCN2CN(C)C(=S)N(c3ccc(C)cc3C)C2)cc1 — lower, 82 to 85 °C
- CC1CC(=O)NN=C1c1cccc(C(F)(F)F)c1 (stereo not drawn) — lower, 132 to 134 °C
- CCCCCCCCCCCCCCCCCCCC1CN(C(=O)c2cc(OC)c(OC)c(OC)c2)CCN1C(=O)c1cc(OC)c(OC)c(OC)c1 (stereo not drawn) — lower, 76 °C
- CSc1nccn1-c1nc(-c2ccc(Cl)cc2)c(CCC(=O)O)o1 — lower, 225 to 226 °C
- COC(=O)c1cccc(-c2cccc(Oc3cc(Cl)cc(Cl)c3)n2)c1 — lower, 125 to 126 °C
- CC(C)(C)c1ccnc(NC(=O)Nc2ccc(Oc3ccc(Cl)cc3)cc2)c1 — lower, 198 to 199 °C
- CC(C)(C)NCC(O)COc1ccccc1-c1ccc(=O)[nH]n1 (stereo not drawn) — lower, 162 to 164 °C
- CCCCCCCCCCCCCCCCSCC(CNS(=O)(=O)CCCI)n1nnnc1C (stereo not drawn) — lower, 63.5 to 65.5 °C
- CC(=O)OC1CSC(Oc2ccc(-c3cncnc3)nc2)C(OC(C)=O)C1OC(C)=O (stereo not drawn) — lower, 215 °C
- COc1cc2cc3ncc(C#N)c(Nc4ccc(F)c(Cl)c4)c3cc2cc1OC — not separable, > 280 °C
- O=C(O)Cn1cnnn1 — lower, 125 to 127 °C
- CCCCCCCCCCOc1cnc(-c2ccc(C#CCCCC(C)OC(C)=O)cc2)nc1 (stereo not drawn) — lower, 57 to 58 °C
- Fc1ccc(Oc2cnc3c(-c4ccccc4Cl)n[nH]c3n2)c(F)c1 — lower, 240 to 242 °C
- CCCCN(Cc1ccc(-c2ccccc2-c2nc(=O)o[nH]2)cc1)c1ncncc1C(=O)OCC — lower, 65 to 69 °C
- Cc1c(NC(=O)C(CSC(=O)c2ccco2)Cc2ccccc2)cccc1C(=O)O (stereo not drawn) — lower, 113 to 116 °C
- Cc1oc(-c2ccccc2)nc1COc1cccc(COc2cncc(CC(=O)O)c2)c1 — lower, 158 to 159 °C
- COC(=O)C(=CN(C)C)N(C)c1cccc(-c2ccc(Cl)cc2)n1 — lower, 101 °C
- CCCc1c(OCCCSc2cccc(CC(=O)O)c2F)ccc(C(C)=O)c1O — lower, 63 to 65 °C
- CCOC(=O)c1ccccc1Nc1nc(Nc2ccc3c(c2)CCN(CCOC)CC3)ncc1Cl — lower, 78 to 80 °C
- Cc1cc2c(cc1C1=NNC(=O)CC1)OCC(=O)N2C — lower, 211 to 213 °C
- CCOC(=O)N1CCSC1COc1ccccc1OC (single isomer, unassigned; (-)) — lower, 64 to 65 °C
- CC(C)(C)OC(=O)Nc1cc(N2CCC3(CC2)OCCO3)c(C#Cc2ccccc2)cc1[N+](=O)[O-] — lower, 179 to 180 °C
- CC(C)(C)OC(=O)CCOCCc1cccc(-c2nc(=O)c3ccccc3s2)n1 — lower, 67.7 to 68.5 °C
- FC(F)(F)c1ccc2nc(N3CCN(c4ncccc4Cl)CC3)[nH]c2c1 — lower, 208 to 210 °C
- COc1ccc(NC(=O)Nc2ccc(Cl)c(Cl)c2)cc1NS(=O)(=O)c1cccs1 — lower, 205 to 208 °C
- CN1C(=O)n2c(nc3ccccc32)NC12CCCC2 — lower, 180 to 182 °C
- CSc1ccc2ccc(N)nc2n1 — lower, 158 °C
- CCCCCCCC(CCCCCCCCC(CCCCCCC)NC(C)=O)NC(C)=O (stereo not drawn) — lower, 158 to 162 °C
- Cc1nc2c(o1)-c1c(SC(C)C)sc(C(=O)O)c1CC2 — lower, 277 to 278 °C
- COC(=O)CC(NC1CC1)=C(C(=O)OC)C(=O)C(F)(F)F — lower, 51.5 to 52.5 °C
- O=C(NC1CCN(CCc2ccccc2)CC1)c1c[nH]c2ccc(F)cc12 — lower, 238 to 240 °C
- CCCCCCCCCCCCCCCCCCOc1cc(OCCCCCCc2cccc(O)c2O)cc(C(=O)OC)c1 — lower, 82 to 84 °C
- CS(=O)(=O)c1ccc(Cl)c(C(=O)Nc2ccc(-n3nc(C(F)(F)F)cc3C3CC3)cc2)c1 — lower, 132 to 135 °C
- O=c1[nH]c2ccccc2c2c(=O)n(-c3ccccc3)[nH]c12 — not separable, > 260 °C
- CC(C(=O)NCCN(C)C)c1cccc(C(=O)c2cc3ccsc3s2)c1 (stereo not drawn) — lower, 160 °C
- Cn1c2ccccc2c2cc(C(=O)O)sc21 — lower, 179 to 180 °C
- N#CC(c1ccccc1)(c1ccccc1)[C@H]1CCCN(CCc2ccccc2)C1 — lower, 134 to 138 °C
- COC(=O)c1nc(-c2ccc(Cl)c(OC)c2F)c(F)c(N)c1SC — lower, 113 to 117 °C
- COc1ccc(-c2[nH]nc3c2C(=O)c2c(NC(=O)NN4CCOCC4)cccc2-3)cc1 — lower, 290 to 291 °C
- Cc1ccc2c(=O)n(S(=O)(=O)c3ccc(Cl)cc3)c(=O)[nH]c2c1C — lower, 241 to 245 °C
- CN1CCC(c2c[nH]c3ccc(NC(=O)c4ccsc4)nc23)CC1 — lower, 123 to 127 °C
- CCOCCn1c(NC2CCN(CCO)CC2)nc2cccnc21 — lower, 94.3 °C
- c1ccc(C2=NN=C(N3CCSCC3)SC2)cc1 — lower, 160 °C
- CCOC(=O)c1cc(=O)c(O)c(-c2ccc(OC)cc2)o1 — lower, 163 to 164 °C
- O=C(Nc1ccc(Cl)cc1[N+](=O)[O-])NC1CCCCC1 — lower, 115 to 116 °C
- CCCCc1nc(CCC)n[nH]1 — lower, 48.5 to 50 °C
- CCOC(=O)CNC(=O)CCCCCNC(=O)c1cccc(C(F)(F)F)c1 — lower, 102 to 104 °C
- CCOC(=O)C(=CC=C(C#N)c1ccccc1)N(C)C — lower, 67 °C
- Cc1nc(N)c2nc(C)n(CCNS(C)(=O)=O)c2c1C — not separable, > 250 °C
- CCn1ncc2c3ncn(CCC(C)C)c(=O)c3cnc21 — lower, 165 to 167 °C
- O=c1c2cccnc2n(-c2cccc([N+](=O)[O-])c2)c(=O)n1Cc1ccccc1 — lower, 219 to 220 °C
- COc1ccc(C2Sc3c(ccc4ccccc34)N(CCN(C)C)C(=O)C2O)cc1 (stereo not drawn) — lower, 160 to 161 °C
- COc1ccc2c(c1)Cc1cc(F)ccc1C(=O)C2 — lower, 129 to 130 °C
- Cn1ccc2cccc(C3=C(c4c[nH]c5c(CCCO)cccc45)C(=O)NC3=O)c21 — lower, 183 to 185 °C
- O=[N+]([O-])c1cc(Br)ccc1N1CCc2cc(Br)ccc21 — lower, 150 to 152 °C
- CC(C)(CC(O)(Cn1ccc2c1CCCC2=O)C(F)(F)F)c1cccc2c1OCC2 (stereo not drawn) — lower, 145 to 146 °C
- CON(C)C(=O)c1cc(C(F)(F)F)nc2c(C(F)(F)F)cccc12 — lower, 93 to 95 °C
- C=CCNc1c([N+](=O)[O-])ccc(Oc2ccc(C#N)cc2)c1Cl — lower, 85 to 87 °C
- O=[N+]([O-])c1cccc2c1ccn2S(=O)(=O)c1cccc2ccccc12 — lower, 156 to 157 °C
- Cc1ccc(C)c2c1OCc1ccccc1C2C(=O)Nc1c(C(C)C)cccc1C(C)C (stereo not drawn) — lower, 149 to 150 °C
- C#CCNC(=C[N+](=O)[O-])NCCSCc1csc(NC(=N)N)n1 — lower, 82 to 90 °C
- CCOC(=O)C1SC(c2ccc3ccccc3c2)=NN1C(=O)CCSC(C)=O (stereo not drawn) — lower, 107 to 108 °C
- O=C(C=Cc1cccc(Br)c1)Nc1ccc(CN2CCCCC2)cc1 — lower, 144 to 145 °C
- COc1cccc2c(=O)c(CSC)cn(C)c12 — lower, 143 to 145 °C
